Data set [1] relates to M. tuberculosis H37Rv. The data set is described as follows: microbe, parasite or virus in culture. The data set is classed as cell-based. To be noted: Mycobacterium tuberculosis.
Data set [2] relates to cyd knockout strain (cydC::aph). It counts as cell-based, Mycobacterium tuberculosis.
Data set [3] concerns piniBAC reporter strain. The data set is classed as cell-based, Mycobacterium tuberculosis. Conditions: upregulation of iniBAC promoter.
The nature of data set [4]: physchem. The data set is classed as physicochemical. To be noted: pH 7.4. The procedure: The chromatographic hydrophobicity index (CHI) was determined according the method previously described.[43],[44] Briefly, test compounds were prepared as 0.5 mM solutions in 50:50 acetonitrile/water and analyzed by reversed-phase HPLC-UV (wavelength 254 nm) using a Phenomenex Luna C18 100 Å, 150 × 4.6 mm, 5 μm column with a gradient of aqueous phase (50 mM ammonium acetate (pH 7.4)) and mobile phase (acetonitrile). By plotting the retention time of a set of reference compounds against known CHI values, the CHI value of test compounds was calculated according to their retention time.

The nature of data set [5]: Calculated properties (StarDrop).
A short description of data set [6]: physchem. It counts as physicochemical. Conditions: water, kinetic from dmso stock, Kinetic solubility. The procedure: The aqueous solubility of the test compounds was measured using laser nephelometry. Compounds were subject to serial dilution from 10 to 0.5 mM in DMSO. An aliquot was then mixed with Milli-Q water to obtain an aqueous dilution plate with a final concentration range of 250–12 μM, with a final DMSO concentration of 2.5%. Triplicate aliquots were transferred to a flat bottomed polystyrene plate which was immediately read on the NEPHELOstar (BMG Lab Technologies). The amount of laser scatter caused by insoluble particulates (relative nephelometry units, RNU) was plotted against compound concentration using a segmental regression fit, with the point of inflection being quoted as the compounds aqueous solubility (μM).

Data set [7] in a line: in vitro. The data set is classed as in vitro ADME. To be noted: PAMPA, pH 7.4. The procedure: The permeability was performed using a 96-well precoated BD Gentest PAMPA plate (BD Biosciences, U.K.). Each well was divided into two chambers: donor and acceptor, separated by a lipid-oil-lipid trilayer constructed in a porous filter. The effective permeability, Pe, of the compound was measured at pH 7.4. Stock solutions (5 mM) of the compound were prepared in DMSO. The compound was then further diluted to 10 μM in phosphate buffered saline at pH 7.4. […] The compound dissolved in phosphate buffered saline was then added to the donor side of the membrane, and phosphate buffered saline without compound was added to the acceptor side. The PAMPA plate was left at room temperature for 5 h; after which time, an aliquot (100 μL) was then removed from both acceptor and donor compartments and mixed with acetonitrile (80 μL) containing an internal standard: donepezil at 50 ng/mL). The samples were centrifuged (10 min, 5 °C, 3270g) to sediment precipitated protein and sealed prior to UPLC-MS/MS analysis using a Quattro Premier XE (Waters Corp, USA). Pe was calculated as shown in the below equation. [drawing 2] where CA(t) = peak area of compound present in acceptor well at time (t) = 18 000 s; Cequi = [CD(t) × VD + CA(t) × VA]/(VD + VA); A = filter area; VD = donor well volume; VA = acceptor well volume; t = incubation time; CD(t) = peak area of compound present in donor well at time (t) = 18 000 s. Recovery of compound from donor and acceptor wells was calculated, and data was only accepted when recovery exceeded 70%.
In general terms: The PAMPA barrier holds no transporters, so it reflects passive diffusion.

Data set [8] is classed as in vitro ADME. To be noted: mouse, plasma. The protocol:
In brief, a 96-well equilibrium dialysis apparatus was used to determine the free fraction in plasma for each compound (HT Dialysis LLC, Gales Ferry, CT). Membranes (12–14 kDaA cutoff) were conditioned in deionized water for 60 min, followed by conditioning in 80:20 deionized water/ethanol overnight and then rinsed in water and isotonic buffer before use. Mouse plasma from appropriate species was removed from the freezer and allowed to thaw on the day of experiment. Thawed plasma was then centrifuged (Allegra X12-R, Beckman Coulter, USA) and spiked with test compound (final concentration 10 μg/mL), and 150 μL aliquots (n = 3 replicate determinations) were loaded into the 96-well equilibrium dialysis plate. Dialysis against isotonic buffer (150 μL) was carried out for 5 h in a temperature controlled incubator at ca. 37 °C (Barworld scientific Ltd., UK) using an orbital microplate shaker at 100 rpm (Barworld scientific Ltd., UK). At the end of the incubation period, 50 μL aliquots of plasma or buffer were transferred into a 96-well deep plate and the composition in each well was balanced with control fluid (50 μL), such that the volume of buffer to plasma is the same. Sample extraction was performed by the addition of 200 μL of acetonitrile containing an appropriate internal standard. Samples were allowed to mix for 1 min and then centrifuged at 3000 rpm in 96-well blocks for 15 min (Allegra X12-R, Beckman Coulter, USA) after which 150 μL of supernatant was removed to 50 μL of water. All samples were analyzed by UPLC-MS/MS on a Quattro Premier XE Mass Spectrometer (Waters Corporation, USA). The unbound fraction was determined as the ratio of the peak area in buffer to that in plasma.

Data set [9] has as its system wild-type MTb H37Rv. The data set is described as follows: CFU after 7 days of treatment, wild-type. The data set is classed as cell-based, Mycobacterium tuberculosis. To be noted: treatment at MIC concentrations. The protocol:
Figure 4 Mtb lacking the alternative type II NADH dehydrogenase encoded by ndhA was more susceptible to compound 1. Colony-forming units (CFU) after 7 days of treatment as compared to CFU at start of drug treatment (inoculum). Unpaired t test comparison between WT and ΔndhA at 0.5 μM compound 1: two-tailed P-value = 0.0023.

The subject of data set [10] is ndhA mutant. The data set is classed as cell-based. To be noted: results not shown.
In data set [11] the test system is MTb H37Rv in J774 macrophages. The data set is described as follows: Activity against MTb in infected macrophages. It counts as cell-based, Mycobacterium tuberculosis. Conditions: 7 days of drug treatment, CFU. The procedure: Figure S7. […] J774 macrophages in
24w plates (500,000 cells per well) were infected with MTb H37Rv at an MOI of 1:1 for 24 hours. Infected cells were washed three times and supplemented with macrophage growth medium with compounds at the indicated concentrations or the DMSO solvent. Cell medium was replenished every 3 days and cells lyzed after 7 days of drug treatment and plated on 7H11/OADC plates for CFU enumeration.
(1 picture or pasted object on this page, not shown here)

Data set [12] relates to HepG2.
For data set [13] the following is noted: mouse liver microsomes. For orientation: Microsomes from liver hold many membrane-bound enzymes, among them those of drug oxidation.
In data set [14] the test system is HepG2. The data set is described as follows: cells. To be noted: Homo sapiens, HepG2, read-out: HepG2 IC50.
The test system of data set [15] is MTb H37Rv. The data set is described as follows: Intracellular ATP levels (BacTiter-Glo). Conditions: 24 h drug exposure.

SMILES strings stand for the structures. ≈ marks a conversion by molar mass, not a printed value. Where two headings read alike, the source gives them in different places.

As to `O=C(CSc1nc2ccccc2c(=O)[nH]1)NC1CCCCC1` [Compound 1, N-Cyclohexyl-2-((4-oxo-3,4-dihydroquinazolin-2-yl)thio)acetamide], the values for the MIC in data set [1] (read-out: 7H9-ADC MIC) and in [1] (read-out: 7H9-ADC MIC in ng/mL) were 0.6 µM and 190 ng/mL, respectively. For the same compound, in data set [2], the “Cyd KO reporter” value is listed as “Not likely QcrB inhibitor”. The pini-LUC reporter result in data set [3] was “Not likely cell wall inhibitor”. Also, the chromatographic logD (in general, lipophilicity estimated from chromatographic retention) in data set [4] was 1.8. In addition, the PFI in data set [5] was 4.7. The kinetic solubility (commonly the concentration staying in solution when a stock, usually in DMSO, is diluted into the medium) in data set [6] was determined as 83 µM (≈ 26.3 µg/mL). Further, the Papp (commonly a coefficient for how fast a substance crosses the barrier) at 5 h, 10 μM in data set [7] is 8.3 ×10⁻⁶ cm/s. The “PPB (% unbound)” value in data set [8] is 14 % unbound. Further, in [9], the “Growth of wild-type MTb H37Rv over 7 days” value was “could not fully suppress growth”. Besides, the “MIC to ndhA mutant strain compared with WT” value in data set [10] is given as “indistinguishable from WT cells”. Also, the “Activity against MTb growing in infected macrophages” value in data set [11] was “lacked activity”. In addition, in data set [12], the “HepG2 cytotoxicity (in words)” value is on record as “no noticeable cytotoxicity”. Further, the “Mouse microsomal metabolite identification” value in data set [13] was “significant oxidation of the cyclohexyl and quinazolin-4(3H)-one rings as well as cleavage of the amide bond”. In addition, in data set [14], the 50% inhibitory concentration (IC50) (commonly the point on the concentration scale where inhibition reaches its midpoint) is above 50 µM. For the same compound, the “Cellular ATP levels in MTb” value in [15] is on record as “depletion of cellular ATP levels”.

The values are drawn from paper PMC5996347, “2-Mercapto-Quinazolinones as Inhibitors of Type II NADH Dehydrogenase and Mycobacterium tuberculosis: Structure–Activity Relationships, Mechanism of Action and Absorption, Distribution, Metabolism, and Excretion Characterization” (ACS Infectious Diseases, 2018).
